{"source": "patent EP0536208B1", "about": "“1,2-DIHYDRO-3H-DIBENZISOQUINOLINE-1,3-DIONE ANTICANCER AGENTS” (RESEARCH CORPORATION TECHNOLOGIES, INC., priority 1990, dated 1992)", "format_in_all_cases": "in vivo", "key": {"[1]": {"tested_on": "P-388/ADR (adriamycin-Resis-tant)", "assay": "Survival study in tumor-bearing mice, P-388/adriamycin resistant model", "conditions": "10^6 cells in DBA mice; 15 mg/kg; d1,5,9; intraperitoneally", "from_the_text": "Thus, in the lower level resistant cell lines, such as the ten-fold mitomycin C resistant L1210 and the tenfold adriamycin resistant 2780 ovarian cancer, Compound 1 maintained its complete activity as shown in Table II. The anti-tumor activity of compounds of the present invention in in vivo mouse murine models were studied. 3) Survival Studies In Tumor-Bearing Mice: 3.1 P-388 Leukemia Modles: One million P-388 leukemia cells originally obtained from American Type Culture Collection (Rockville, MD) are implanted into the peritoneum of adult DBA-2J male mice (Jackson Laboratories, Bar Harbor, ME). Twenty four hours later, drugs diluted in physiological saline are injected intraperitoneally at a volume of 0.1 mL/10 g body weight. The mice (10/group) are then followed for survival daily and compared to untreated tumor bearing mice. […] The perpendicular widths of the tumors are measured by caliper thrice weekly and converted to an estimated tumor mass according to the formula: ((1 X W)^2)/(2)= grams of tumor. [formula] wherein • W = width of tumor • l = length of tumor Tumor growth delay is calculated as the difference in days for tumors in treated mice to reach an estimated mass 750 mg or 1.5 g compared to that in untreated controls: Days to reach 750 mg (Treated - Control) = Days of Tumor Growth Delay [formula] […]"}, "M5-76 Sarcoma": {"tested_on": "M5-76 Sarcoma", "assay": "Tumor growth delay in mice, M5-76 sarcoma model", "conditions": "-76 Sarcoma (Southern Research Institute)", "method": "(§1) Corbett, T.H., et al., Cancer Chemo Rep., 5 (1975). Mammary 16-C Adenocarcinoma and M5-76 Sarcoma: Chunks of tumor (20-50 mg) are subcutaneously implanted into the flank of B6C3F1 female mice. Drugs (10-45 mg/kg) are dissolved in saline and injected intraperitoneally every four days for three times starting one day after tumor implantation. Tumors are measured bidimensionally as described above and tumor growth delay is calculated at times to reach 1.5 and 3.0 g of tumor mass."}, "[2]": {"tested_on": "16-C Mammary Adenocarcinoma", "assay": "Tumor growth delay in mice, Mammary 16-C model", "conditions": "16-C Mammary Adenocarcinoma (Southern Research Institute)", "method": "as §1"}}, "data": [{"smiles": "CN(C)CCN1C(=O)c2cccc3cc4ccccc4c(c23)C1=O", "note": "[Compound 1, 2-[2'-(dimethylamino)ethyl]-1,2-dihydro-3H-dibenz(deh)isoquinoline-1,3-dione]", "values": [{"measurement": "Experimental Activity, ILS (Percentage Increased Lifespan)", "setting": "[1]", "value": 33, "unit": "ILS"}, {"measurement": "Experimental Activity, Days of Tumor Growth Delay", "setting": "M5-76 Sarcoma", "value": 7, "unit": "days"}, {"measurement": "Experimental Activity, Days of Tumor Growth Delay", "setting": "[2]", "value": 7, "unit": "days TT"}]}]}
